{"source": "patent US20190284168A1", "about": "“PYRAZOLE DERIVATIES AS SGC STIMULATORS” (IRONWOOD PHARMACEUTICALS, INC., priority 2014, published 2019)", "key": {"[1]": {"system": "mdx mouse", "settings": "cited from earlier work"}, "[2]": {"system": "sickle cell disease patients with severe PHT", "settings": "cited from earlier work"}, "[3]": {"system": "adult sickle cell disease patients", "settings": "infusions; cited from earlier work"}, "[4]": {"system": "NO-defficient rats", "settings": "NO-deficient rats; cited from earlier work"}, "[5]": {"system": "adult patients with sickle cell disease", "settings": "acute VOE, vs placebo; cited from earlier work"}, "[6]": {"system": "sickle mice", "settings": "oral, high doses; cited from earlier work"}, "[7]": {"system": "Sprague-Dawley Rats", "test": "Blood pressure change in Sprague-Dawley rats", "type": "in vivo, rat", "settings": "10 mpk PO, conscious Sprague-Dawley rats", "description": "Male rats (250-350 g body weight, supplied by Harlan Laboratories) were anesthetized with ketamine/xylazine and a heparinized saline fluid filled catheter implanted into the right femoral artery. The catheter was exteriorized between the scapula, capped, and the animal allowed to recover for at least 7 days post surgery prior to any compound testing. Prior to testing animals were maintained on normal diet, with free access to drinking water, under a 12 hour light-dark cycle.\nOn the day of experimentation, under inhaled isoflurane anesthesia, the catheter was uncapped and connected to a tether (Instech Labs) and pressure transducer (Harvard Apparatus). Blood pressure and heart rate were subsequently captured and analyzed with a dedicated data capture system (PowerLab, ADInstruments). Data sampling rates were set at 1 cycle per second. Once connected, each rat was allowed to recover from anesthesia and baseline blood pressure and heart rate levels were established in these conscious, freely-moving animals. Once baseline was established either vehicle (0.5% methylcellulose or 100% PEG400) or test article was administered orally (PO, 10 mg/kg) and the effects on blood pressure and heart rate monitored for up to 24 hours.\nData are reported as hourly averages and changes in blood pressure are calculated from subtracting individual baseline on an hourly basis (Table 4)"}, "[8]": {"biological_target": "T1, soluble guanylate cyclase (sGC) (Homo sapiens, UniProt Q02108+Q02153)", "T1 construct": "endogenously expressing soluble guanylate cyclase (sGC); endogenous in cells; host or cells: HEK293", "T1 sequence (Q02153 1-619)": "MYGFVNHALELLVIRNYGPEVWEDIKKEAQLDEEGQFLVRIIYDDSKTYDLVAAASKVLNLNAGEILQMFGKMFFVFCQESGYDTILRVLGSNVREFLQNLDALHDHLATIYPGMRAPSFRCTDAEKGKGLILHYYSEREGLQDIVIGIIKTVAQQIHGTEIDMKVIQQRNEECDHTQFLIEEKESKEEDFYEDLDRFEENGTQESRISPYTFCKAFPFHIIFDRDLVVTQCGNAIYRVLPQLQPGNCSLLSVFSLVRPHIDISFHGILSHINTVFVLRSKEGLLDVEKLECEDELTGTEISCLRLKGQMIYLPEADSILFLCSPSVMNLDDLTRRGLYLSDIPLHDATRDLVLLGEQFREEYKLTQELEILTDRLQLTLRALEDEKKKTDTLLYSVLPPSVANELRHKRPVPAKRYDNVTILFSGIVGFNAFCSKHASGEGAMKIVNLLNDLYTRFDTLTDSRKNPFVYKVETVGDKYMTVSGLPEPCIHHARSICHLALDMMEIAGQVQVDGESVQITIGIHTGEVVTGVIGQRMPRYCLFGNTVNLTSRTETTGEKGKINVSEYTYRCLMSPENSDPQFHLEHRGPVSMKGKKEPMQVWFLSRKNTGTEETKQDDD", "T1 sequence (Q02108 1-690)": "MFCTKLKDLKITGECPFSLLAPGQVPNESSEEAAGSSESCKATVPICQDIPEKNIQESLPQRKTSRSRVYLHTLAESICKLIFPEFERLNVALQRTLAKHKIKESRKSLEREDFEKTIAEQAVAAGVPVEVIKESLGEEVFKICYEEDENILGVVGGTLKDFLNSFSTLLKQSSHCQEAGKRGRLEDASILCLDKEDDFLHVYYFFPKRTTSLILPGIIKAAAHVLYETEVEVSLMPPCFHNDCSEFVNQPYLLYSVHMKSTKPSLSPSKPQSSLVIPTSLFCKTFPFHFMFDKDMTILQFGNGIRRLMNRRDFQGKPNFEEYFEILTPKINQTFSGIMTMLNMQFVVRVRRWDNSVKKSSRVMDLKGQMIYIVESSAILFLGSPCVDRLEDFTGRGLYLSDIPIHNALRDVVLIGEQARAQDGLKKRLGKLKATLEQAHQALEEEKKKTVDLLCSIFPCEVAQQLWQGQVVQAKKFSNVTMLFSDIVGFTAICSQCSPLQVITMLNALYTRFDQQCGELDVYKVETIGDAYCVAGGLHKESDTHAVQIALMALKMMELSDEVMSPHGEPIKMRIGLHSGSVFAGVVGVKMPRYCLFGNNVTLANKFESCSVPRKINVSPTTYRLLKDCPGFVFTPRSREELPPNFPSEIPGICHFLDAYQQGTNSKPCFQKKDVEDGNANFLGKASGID", "test": "sGC-HEK-cGMP assay with LC/MS detection", "type": "cell-based", "settings": "HEK293 whole cells, LC/MS detection of cGMP, 10 μM DETA-NONOate; 50% of high control response (30 μM Compound Y); read-out: Absolute EC50 (nM)- binned (~)", "quoted_text": "Human embryonic kidney cells (HEK293), endogenously expressing soluble guanylate cyclase (sGC), were used to evaluate the activity of test compounds. Compounds stimulating the sGC enzyme should cause an increase in the intracellular concentration of cGMP. HEK 293 cells were seeded in Dulbecco's Modification of Eagle's Medium supplemented with fetal bovine serum (10% final) and penicillin (100 U/mL)/streptomycin (100 μg/mL) in a 50 μL volume at a density of 1.5×10^4 cells/well in a poly-D-lysine coated 384 well flat bottom plate. Cells were incubated overnight at 37° C. in a humidified chamber with 5% CO2. Medium was aspirated and cells were washed with 1× Hank's Buffered Saline Salt Solution (50 μL). Cells were then incubated for 15 minutes at 37° C. with 50 μL of a 0.5 mM 3-isobutyl-1-methylxanthine (IBMX) solution.\nwere then added to the assay mixture and the resulting mixture incubated at 37° C. for 20 minutes. After the 20 minute incubation, the assay mixture was aspirated and 10% acetic acid containing 150 ng/mL+3-cGMP (internal standard for LCMS) (50 μL) was added to the cells. The plate was incubated at 4° C. for 30 minutes in the acetic acid solution to stop the reaction and lyse the cells. The plates were then centrifuged at 1,000 g for 3 minutes at 4° C. and the supernatant transferred to a clean reaction plate for LCMS analysis.\ncGMP concentrations were determined from each sample using the LCMS conditions below (Table 2) and calculated standard curve.\nData were fit using a 4-parameter fit (log(agonist) vs. response—variable slope) using GraphPad Prism Software v.5. n=2 for all compounds. […] Compounds failing to elicit a minimum response of 50% are reported as >30 μM."}, "[9]": {"system": "obese mice", "settings": "cited from earlier work"}, "[10]": {"system": "Guinea pig tracheal smooth muscle", "test": "Electrical field stimulated guinea pig tracheal smooth muscle contraction", "settings": "guinea pig tracheal strips, sub-maximal EFS; 95% CI 0.78-0.94; read-out: IC50, inhibition of EFS-induced tracheal smooth muscle contraction", "from_the_text": "It is possible to assess the bronchodilating effects of sGC stimulators by using the system described below. This system allows us to determine potency, efficacy and duration of action of several sGC stimulators, as well as to assess potential side effects such as blood pressure, or heart rate changes.\nAnimals: Guinea pig, Dunkin Hartley, male, Full barrier-bred and certified free of specific micro-organisms on receipt 525-609 g on the experimental day, Harlan UK Ltd. Guinea pigs are housed in a group of 4 in solid-bottomed cages with Gold Flake bedding in a controlled environment (airflow, temperature and humidity). Food (FD1, Special Diet Services) and water are provided ad libitum.\nOn each experimental day, a guinea pig is killed by exposure to a rising concentration of CO2 and the trachea removed. […] Tissues are washed with Kreb's buffer and stimulated using the previously determined sub-maximal voltage for 1 hour to establish a stable baseline contraction prior to assessment of compound activity.\nA cumulative dose response curve (DRC) to each test substance is then performed and changes in smooth muscle contraction measured. The effect of each test substance in each experiment is expressed as a percentage inhibition of the baseline contraction, normalized to the relevant vehicle controls. […]"}}}
{"compound": "CCCc1nn(C)c2c(=O)[nH]c(-c3cc(S(=O)(=O)N4CCN(C)CC4)ccc3OCC)nc12", "note": "[sildenafil, Sildenafil]", "values": [{"measurement": "muscle ischemia, injury and fatigue after a brief bout of exercise", "setting": "[1]", "result": "alleviate muscle ischemia, as well as injury and fatigue"}, {"measurement": "serious side effects (VOE, headache, visual disturbance)", "setting": "[2]; Walk-PHaSST multicenter trial, stopped prematurely", "result": "higher frequency of serious side effects"}, {"measurement": "PAP and exercise capacity", "setting": "[2]; sickle cell disease patients with severe PHT", "result": "improvements in PAP and exercise capacity"}]}
{"compound": "O=NO", "note": "[sodium nitrite]", "values": [{"measurement": "forearm blood flow", "setting": "[3]", "result": "enhanced forearm blood flow"}]}
{"compound": "Nc1nc(-c2nn(Cc3ccccc3F)c3ncccc23)ncc1C1CC1", "note": "[BAY-2272]", "values": [{"measurement": "bladder dysfunction", "setting": "[4]", "result": "protective effects"}]}
{"compound": "nitric oxide [inhaled NO]", "values": [{"measurement": "pain scores", "setting": "[5]", "result": "significantly reduced pain scores"}]}
{"compound": "N=C(N)NCCC[C@H](N)C(=O)O", "note": "[L-arginine, arginine]", "values": [{"measurement": "Gardos channel activity, dense cell formation and hemolysis", "setting": "[6]", "result": "decrease Gardos channel activity, dense cell formation and hemolysis"}]}
{"compound": "Fc1cnc(-c2cc(-c3ccon3)n(Cc3ccccc3F)n2)nc1", "note": "[Compound 109]", "values": [{"measurement": "Rat Mean Arterial Pressure peak change from baseline (at 3 or 10 mpk@)", "setting": "[7]", "result": "B (B = −20 ≤ peak change from baseline at 3 or 10 mpk ≤ −10)"}, {"measurement": "EC50", "setting": "[8]", "result": "100 to 1000", "unit": "nM"}]}
{"compound": "O=C(O)CCCCN(CCc1cc(F)ccc1OCc1ccc(-c2ccc(C(F)(F)F)cc2)cc1)Cc1ccc(C(=O)O)cc1", "note": "[BAY 60-2770]", "values": [{"measurement": "overactive bladder", "setting": "[9]", "result": "ameliorates overactive bladder"}]}
{"compound": "CC(C)[N+]1(C)[C@@H]2CC[C@H]1CC(OC(=O)C(CO)c1ccccc1)C2", "note": "(some centres unmarked) [Ipratropium bromide, ipratropium bromide]", "values": [{"measurement": "IC50", "setting": "[10]", "result": 0.86, "unit": "nM"}]}
